# Tested on: KRAS patient-derived spheroids with HUVEC/MSC, viability
# Test: Anticancer human tumor 519858-162-T-J1-PDC patient-derived colon adenocarcinoma cell line growth inhibition [KRAS2]
# Details: for IC50: curve of first compound; for viability, T/C: stronger effect = lower value
# Summary of the method: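 KRAS-mutant tumor cells were grown as spheroids with HUVEC endothelial cells and human MSCs as stroma. Targeted agents were tested alone and with KRAS pathway inhibitors. Doses started at or near clinical Cmax, or 10 microM, descending half-log.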
# [1] = second compound 0.1 µM, first compound 0.000316 µM
# [2] = second compound 0.1 µM, first compound 0.001 µM
# [3] = second compound 0.1 µM, first compound 0.00316 µM
# [4] = second compound 0.1 µM, first compound 0.01 µM
# [5] = second compound 0.1 µM, first compound 0.0316 µM
# [6] = second compound 0.316 µM, first compound 0.000316 µM
# [7] = second compound 0.316 µM, first compound 0.001 µM
# [8] = second compound 0.316 µM, first compound 0.00316 µM
# [9] = second compound 0.316 µM, first compound 0.01 µM
# [10] = second compound 0.316 µM, first compound 0.0316 µM
# [11] = second compound 1 µM, first compound 0.000316 µM
# [12] = second compound 1 µM, first compound 0.001 µM
# [13] = second compound 1 µM, first compound 0.00316 µM
# [14] = second compound 1 µM, first compound 0.01 µM
# [15] = second compound 1 µM, first compound 0.0316 µM
# [16] = second compound 3.16 µM, first compound 0.000316 µM
# [17] = second compound 3.16 µM, first compound 0.001 µM
# [18] = second compound 3.16 µM, first compound 0.00316 µM
# [19] = second compound 3.16 µM, first compound 0.01 µM
# [20] = second compound 3.16 µM, first compound 0.0316 µM
# [21] = second compound 10 µM, first compound 0.000316 µM
# [22] = second compound 10 µM, first compound 0.001 µM
# [23] = second compound 10 µM, first compound 0.00316 µM
# [24] = second compound 10 µM, first compound 0.01 µM
# [25] = second compound 10 µM, first compound 0.0316 µM
# [26] = second compound 0.1 µM, first compound 0.1 µM
# [27] = second compound 0.316 µM, first compound 0.1 µM
# [28] = second compound 1 µM, first compound 0.1 µM
# [29] = second compound 3.16 µM, first compound 0.1 µM
# [30] = second compound 10 µM, first compound 0.1 µM
# [31] = second compound 0.1 µM, first compound 0.316 µM
# [32] = second compound 0.1 µM, first compound 1 µM
# [33] = second compound 0.1 µM, first compound 3.16 µM
# [34] = second compound 0.1 µM, first compound 10 µM
# [35] = second compound 0.316 µM, first compound 0.316 µM
# [36] = second compound 0.316 µM, first compound 1 µM
# [37] = second compound 0.316 µM, first compound 3.16 µM
# [38] = second compound 0.316 µM, first compound 10 µM
# [39] = second compound 1 µM, first compound 0.316 µM
# [40] = second compound 1 µM, first compound 1 µM
# [41] = second compound 1 µM, first compound 3.16 µM
# [42] = second compound 1 µM, first compound 10 µM
# [43] = second compound 3.16 µM, first compound 0.316 µM
# [44] = second compound 3.16 µM, first compound 1 µM
# [45] = second compound 3.16 µM, first compound 3.16 µM
# [46] = second compound 3.16 µM, first compound 10 µM
# [47] = second compound 10 µM, first compound 0.316 µM
# [48] = second compound 10 µM, first compound 1 µM
# [49] = second compound 10 µM, first compound 3.16 µM
# [50] = second compound 10 µM, first compound 10 µM
# 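Also: compound exposure lasted seven days before readout.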
# 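For viability, T/C in this document: 100% = DMSO vehicle control viability.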
structure (smiles),measurement,setting,value
CC(=O)Nc1cccc(-n2c(=O)n(C3CC3)c(=O)c3c(Nc4ccc(I)cc4F)n(C)c(=O)c(C)c32)c1 + COc1cc2nc(C)nc(NC(C)c3cc(N)cc(C(F)(F)F)c3)c2cc1OC1CCOC1,IC50,second compound 0.1 µM,2.46 nM
same,IC50,second compound 0.316 µM,2.01 nM
same,IC50,second compound 1 µM,1.01 nM
same,IC50,second compound 3.16 µM,0.275 nM
same,IC50,second compound 10 µM,0.203 nM
same,"viability, T/C","second compound 0.1 µM, first compound 0.0001 µM",83.3%
same,"viability, T/C",[1],74.2%
same,"viability, T/C",[2],65%
same,"viability, T/C",[3],39.6%
same,"viability, T/C",[4],36.1%
same,"viability, T/C",[5],12.5%
same,"viability, T/C","second compound 0.316 µM, first compound 0.0001 µM",64.8%
same,"viability, T/C",[6],85.2%
same,"viability, T/C",[7],73.8%
same,"viability, T/C",[8],34.7%
same,"viability, T/C",[9],24.2%
same,"viability, T/C",[10],13.8%
same,"viability, T/C","second compound 1 µM, first compound 0.0001 µM",72.2%
same,"viability, T/C",[11],59.3%
same,"viability, T/C",[12],53.1%
same,"viability, T/C",[13],33.6%
same,"viability, T/C",[14],18.5%
same,"viability, T/C",[15],11%
same,"viability, T/C","second compound 3.16 µM, first compound 0.0001 µM",67.8%
same,"viability, T/C",[16],46.3%
same,"viability, T/C",[17],30.6%
same,"viability, T/C",[18],27.7%
same,"viability, T/C",[19],11.9%
same,"viability, T/C",[20],8.2%
same,"viability, T/C","second compound 10 µM, first compound 0.0001 µM",69.2%
same,"viability, T/C",[21],32.2%
same,"viability, T/C",[22],31.9%
same,"viability, T/C",[23],6.2%
same,"viability, T/C",[24],4.93%
same,"viability, T/C",[25],3.59%
CC(C)n1nc(-c2ccc3oc(N)nc3c2)c2c(N)ncnc21 + COc1cc2nc(C)nc(NC(C)c3cc(N)cc(C(F)(F)F)c3)c2cc1OC1CCOC1,IC50,second compound 0.1 µM,> 100 nM
same,IC50,second compound 0.316 µM,> 100 nM
same,IC50,second compound 1 µM,> 100 nM
same,IC50,second compound 3.16 µM,> 100 nM
same,IC50,second compound 10 µM,4.58 nM
same,"viability, T/C",[1],107%
same,"viability, T/C",[2],93.9%
same,"viability, T/C",[3],79.3%
same,"viability, T/C",[4],73%
same,"viability, T/C",[5],70.9%
same,"viability, T/C",[26],74.9%
same,"viability, T/C",[6],89.1%
same,"viability, T/C",[7],99.8%
same,"viability, T/C",[8],90.2%
same,"viability, T/C",[9],84.9%
same,"viability, T/C",[10],73.5%
same,"viability, T/C",[27],72.2%
same,"viability, T/C",[11],89.9%
same,"viability, T/C",[12],84.8%
same,"viability, T/C",[13],75.5%
same,"viability, T/C",[14],67.8%
same,"viability, T/C",[15],65.6%
same,"viability, T/C",[28],77.4%
same,"viability, T/C",[16],117%
same,"viability, T/C",[17],84.2%
same,"viability, T/C",[18],93.4%
same,"viability, T/C",[19],72.5%
same,"viability, T/C",[20],60.2%
same,"viability, T/C",[29],84.7%
same,"viability, T/C",[21],78.1%
same,"viability, T/C",[22],71.7%
same,"viability, T/C",[23],54.3%
same,"viability, T/C",[24],42.6%
same,"viability, T/C",[25],30.2%
same,"viability, T/C",[30],45.6%
COc1cc(Nc2ncc3c(n2)-c2ccc(Cl)cc2C(c2c(F)cccc2OC)=NC3)ccc1C(=O)O + COc1cc2nc(C)nc(NC(C)c3cc(N)cc(C(F)(F)F)c3)c2cc1OC1CCOC1,IC50,second compound 0.1 µM,> 10000 nM
same,IC50,second compound 0.316 µM,> 10000 nM
same,IC50,second compound 1 µM,> 10000 nM
same,IC50,second compound 3.16 µM,> 10000 nM
same,IC50,second compound 10 µM,> 10000 nM
same,"viability, T/C",[5],76.3%
same,"viability, T/C",[26],72.5%
same,"viability, T/C",[31],68%
same,"viability, T/C",[32],75.6%
same,"viability, T/C",[33],88.5%
same,"viability, T/C",[34],87.6%
same,"viability, T/C",[10],79.3%
same,"viability, T/C",[27],78.1%
same,"viability, T/C",[35],62.2%
same,"viability, T/C",[36],82.8%
same,"viability, T/C",[37],78.4%
same,"viability, T/C",[38],115%
same,"viability, T/C",[15],85.9%
same,"viability, T/C",[28],66.4%
same,"viability, T/C",[39],76.6%
same,"viability, T/C",[40],74.8%
same,"viability, T/C",[41],68.6%
same,"viability, T/C",[42],72.3%
same,"viability, T/C",[20],78.9%
same,"viability, T/C",[29],72%
same,"viability, T/C",[43],60.6%
same,"viability, T/C",[44],80.9%
same,"viability, T/C",[45],60.6%
same,"viability, T/C",[46],76.4%
same,"viability, T/C",[25],65.3%
same,"viability, T/C",[30],74.2%
same,"viability, T/C",[47],54.8%
same,"viability, T/C",[48],63.5%
same,"viability, T/C",[49],60.6%
same,"viability, T/C",[50],75.3%
COc1cc2nccc(Oc3ccc(NC(=O)C4(C(=O)Nc5ccc(F)cc5)CC4)cc3)c2cc1OC + COc1cc2nc(C)nc(NC(C)c3cc(N)cc(C(F)(F)F)c3)c2cc1OC1CCOC1,IC50,second compound 0.1 µM,> 10000 nM
same,IC50,second compound 0.316 µM,> 10000 nM
same,IC50,second compound 1 µM,> 10000 nM
same,IC50,second compound 3.16 µM,> 10000 nM
same,IC50,second compound 10 µM,2330 nM
same,"viability, T/C",[5],73.8%
same,"viability, T/C",[26],73.3%
same,"viability, T/C",[31],57%
same,"viability, T/C",[32],107%
same,"viability, T/C",[33],129%
same,"viability, T/C",[34],99.9%
same,"viability, T/C",[10],84.5%
same,"viability, T/C",[27],82%
same,"viability, T/C",[35],72.5%
same,"viability, T/C",[36],85.7%
same,"viability, T/C",[37],95.5%
same,"viability, T/C",[38],64%
same,"viability, T/C",[15],55.7%
same,"viability, T/C",[28],73.4%
same,"viability, T/C",[39],71.6%
same,"viability, T/C",[40],98%
same,"viability, T/C",[41],112%
same,"viability, T/C",[42],68.9%
same,"viability, T/C",[20],75%
same,"viability, T/C",[29],76.8%
same,"viability, T/C",[43],77.9%
same,"viability, T/C",[44],79.4%
same,"viability, T/C",[45],41.2%
same,"viability, T/C",[46],82%
same,"viability, T/C",[25],66.6%
same,"viability, T/C",[30],76.5%
same,"viability, T/C",[47],65.3%
same,"viability, T/C",[48],97.1%
same,"viability, T/C",[49],1.79%
same,"viability, T/C",[50],79.3%

# — PubChem BioAssay AID1963872 (Molecular Pharmacology Branch, DTP, NCI, 2024)
